Here are results for 10 compounds from BindingDB's records for doi:10.1021/acs.jmedchem.1c01403 (Lupin, 2021).

Structures are written as SMILES. pIC50: −log10 of the molar value.

This assay is described as follows: Inhibition of PHA-stimulated IL2 secretion in human Jurkat T cells preincubated for 10 mins followed by PHA addition and measured after 20 to 24 hrs by ELISA. For orientation: In an ELISA, binding on a coated surface is turned into a signal by an enzyme label.
For orientation: pIC50 means the IC50 on a negative log10 scale, so that one unit is a factor of ten. `Cc1ccc(C2=NOC(C)(C)C2=O)cc1-c1ccc(NC(=O)c2c(F)cccc2F)cc1` [US10292981, Example 3] showed a negative-log IC50 (pIC50) of 7.16.
Under `Cc1ccc(C2=NOC(C)(C)C2=O)cc1-c1cnc(NC(=O)c2ccccc2Cl)cn1` [US10292981, Example 78] stands 6.77; under `Cc1ccc(C2=NOC(C)(C)C2=O)cc1-c1cnc(NC(=O)c2c(F)cncc2F)cn1` [US10292981, Example 114], 7.03; under `Cc1ccc(C2=NOC(C)(C)C2=O)cc1-c1cnc(C(=O)Nc2c(F)cccc2F)cn1` [US10292981, Example 121], 6.82.
`Cc1ccc(C2=NOC(C)(C)C2)cc1-c1cnc(NC(=O)c2c(F)cccc2F)cn1` [US10292981, Example 53] had a pIC50 of 6.48.
Compound `Cc1ccc(-c2nn(C)c(=O)o2)cc1-c1ccc(NC(=O)c2c(F)cccc2F)cc1` [US10292981, Example 33] gave a negative-log IC50 (pIC50) of 7.47.
Under `CCn1nc(-c2ccc(C)c(-c3ccc(NC(=O)c4c(F)cccc4F)cc3)c2)oc1=O` [US10292981, Example 34] stands 7.11.
For `Cc1ccc(C2=NOC(C)(C)C2=O)cc1-c1cnc(NC(=O)c2c(F)cccc2Cl)cn1` [US10292981, Example 80] the value was 7.19.
The compound `Cc1ccc(-c2nn(C)c(=O)o2)cc1-c1cnc(NC(=O)c2c(F)cccc2F)cn1` [US10292981, Example 87] gave a pIC50 of 7.19.
Under `Cc1ccc(C2=NOC(C)(C)C2=O)cc1-c1ccc(NC(=O)c2c(F)cccc2F)nc1` [US10292981, Example 4] stands 6.75.
